According to patent US7205296B2, “Substituted 2H-1,3-benzoxazin-4(3H)-ones” (Portola Pharmaceuticals, Inc., priority 2004, dated 2007):
Each block holds one molecule with its values, some of them ahead of it.

What was measured:
[1] = test system: ADP-induced human platelet aggregation; test: PRP assay: inhibition of ADP-mediated platelet aggregation in vitro; assay type: cell-based; conditions: IC50 class
Protocol: I. Inhibition of ADP-Mediated Platelet Aggregation in vitro
The effect of testing the compound according to the invention on ADP-induced human platelet aggregation is preferably assessed in 96-well microtiter assay (see generally the procedures in Jantzen, H. M. et al. (1999) Thromb. Hemost. 81:111–117). Human venous blood is collected from healthy, drug-free volunteers into ACD (85 mM sodium citrate, 111 mM glucose, 71.4 mM citric acid) containing PGI2 (1.25 ml ACD containing 1.6 μM PGI2/10 ml blood; PGI2 was from Sigma, St. Louis, Mo.). Platelet-rich plasma (PRP) is prepared by centrifugation at 160×g for 20 minutes at room temperature. Washed platelets are prepared by centrifuging PRP for 10 minutes at 730×g and resuspending the platelet pellet in CGS (13 mM sodium citrate, 30 mM glucose, 120 mM NaCl; 2 ml CGS/10 ml original blood volume) containing 1 U/ml apyrase (grade V, Sigma, St. Louis, Mo.). After incubation at 37° C. for 15 minutes, the platelets are collected by centrifugation at 730×g for 10 minutes and resuspended at a concentration of 3×10^8 platelets/ml in Hepes-Tyrode's buffer (10 mM Hepes, 138 mM NaCl, 5.5 mM glucose, 2.9 mM KCl, 12 mM NaHCO3, pH 7.4) containing 0.1% bovine serum albumin, 1 mM CaCl2 and 1 mM MgCl2. This platelet suspension is kept >45 minutes at 37° C. before use in aggregation assays.
Inhibition of ADP-dependent aggregation is preferably determined in 96-well flat-bottom microtiter plates using a microtiter plate shaker and plate reader similar to the procedure described by Frantantoni et al., Am. J. Clin. Pathol. 94, 613 (1990). All steps are performed at room temperature. The total reaction volume of 0.2 ml/well includes in Hepes-Tyrodes buffer/0.1% BSA: 4.5×10^7 apyrase-washed platelets, 0.5 mg/ml human fibrinogen (American Diagnostica, Inc., Greenwich, Conn.), serial dilutions of test compounds (buffer for control wells) in 0.6% DMSO. After about 5 minutes preincubation at room temperature, ADP is added to a final concentration of 2 μM which induces submaximal aggregation. Buffer is added instead of ADP to one set of control wells (ADP^− control). The OD of the samples is then determined at 490 nm using a microtiter plate reader (Softmax, Molecular Devices, Menlo Park, Calif.) resulting in the 0 minute reading. The plates are then agitated for 5 min on a microtiter plate shaker and the 5 minute reading is obtained in the plate reader. Aggregation is calculated from the decrease of OD at 490 nm at t=5 minutes compared to t=0 minutes and is expressed as % of the decrease in the ADP control samples after correcting for changes in the unaggregated control samples.

platelet ADP receptors = target: T1, platelet ADP receptors (Homo sapiens, UniProt Q9H244); test: ARB assay: inhibition of [3H]2-MeS-ADP binding to platelets; conditions: IC50 class, [3H]2-MeS-ADP binding to whole human platelets
T1 construct: endogenous in cells; host or cells: whole apyrase-washed human platelets (outdated from blood banks, or fresh)
T1 sequence (Q9H244 whole entry): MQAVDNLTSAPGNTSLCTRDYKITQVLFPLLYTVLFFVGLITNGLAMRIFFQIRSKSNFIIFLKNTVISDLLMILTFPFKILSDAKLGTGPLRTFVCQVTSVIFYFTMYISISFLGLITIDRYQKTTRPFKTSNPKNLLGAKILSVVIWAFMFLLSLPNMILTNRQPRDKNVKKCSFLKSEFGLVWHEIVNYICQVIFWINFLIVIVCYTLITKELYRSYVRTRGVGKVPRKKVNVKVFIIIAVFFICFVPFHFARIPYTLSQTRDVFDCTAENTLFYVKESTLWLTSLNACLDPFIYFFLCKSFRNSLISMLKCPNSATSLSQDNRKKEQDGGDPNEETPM
Protocol: II. Inhibition of [^3H]2-MeS-ADP Binding to Platelets
Utilizing the second assay the potency of inhibition of such compounds with respect to [^3H]2-MeS-ADP binding to whole platelets is determined. [^3H]2-MeS-ADP binding experiments are routinely performed with outdated human platelets collected by standard procedures at hospital blood banks. Apyrase-washed outdated platelets are prepared as follows (all steps at room temperature, if not indicated otherwise):
Outdated platelet suspensions are diluted with 1 volume of CGS and platelets pelleted by centrifugation at 1900×g for 45 minutes. Platelet pellets are resuspended at 3-6×10^9 platelets/ml in CGS containing 1 U/ml apyrase (grade V, Sigma, St. Louis, Mo.) and incubated for 15 minutes at 37° C. After centrifugation at 730×g for 20 minutes, pellets are resuspended in Hepes-Tyrode's buffer containing 0.1% BSA (Sigma, St. Louis, Mo.) at a concentration of 6.66×10^8 platelets/ml. Binding experiments are performed after >45 minutes resting of the platelets.
Alternatively, binding experiments are performed with fresh human platelets prepared as described in I. (Inhibition of ADP-Mediated Platelet Aggregation in vitro), except that platelets are resuspended in Hepes-Tyrode's buffer containing 0.1% BSA (Sigma, St. Louis, Mo.) at a concentration of 6.66×10^8 platelets/ml. Very similar results are obtained with fresh and outdated platelets.
A platelet ADP receptor binding assay using the tritiated potent agonist ligand [^3H]2-MeS-ADP (Jantzen, H. M. et al. (1999) Thromb. Hemost. 81:111–117) has been adapted to the 96-well microtiter format. In an assay volume of 0.2 ml Hepes-Tyrode's buffer with 0.1% BSA and 0.6% DMSO, 1×10^8 apyrase-washed platelets are preincubated in 96-well flat bottom microtiter plates for 5 minutes with serial dilutions of test compounds before addition of 1 nM [^3H]2-MeS-ADP ([^3H]2-methylthioadenosine-5′-diphosphate, ammonium salt; specific activity 48–49 Ci/mmole, obtained by custom synthesis from Amersham Life Science, Inc., Arlington Heights, Ill., or NEN Life Science Products, Boston, Mass.). Total binding is determined in the absence of test compounds. Samples for nonspecific binding may contain 10^−5 M unlabelled 2-MeS-ADP (RBI, Natick, Mass.). After incubation for 15 minutes at room temperature, unbound radioligand is separated by rapid filtration and two washes with cold (4–8° C.) Binding Wash Buffer (10 mM Hepes pH 7.4, 138 mM NaCl) using a 96-well cell harvester (Minidisc 96, Skatron Instruments, Sterling, Va.) and 8×12 GF/C glassfiber filtermats (Printed Filtermat A, for 1450 Microbeta, Wallac Inc., Gaithersburg, Md.). The platelet-bound radioactivity on the filtermats is determined in a scintillation counter (Microbeta 1450, Wallac Inc., Gaithersburg, Md.). Specific binding is determined by […] binding, and specific binding in the presence of test compounds is expressed as % of specific binding in the absence of test compounds dilutions.

SMILES: CNc1cc2c(cc1F)C(=O)N(c1ccc(NC(=O)NS(=O)(=O)c3ccc(C)s3)cc1)CO2 [Example 46, 1-(4-(6-fluoro-7-(methylamino)-4-oxo-2H-benzo[e][1,3]oxazin-3(4H)-yl)-3-5-methylthiophen-2ylsulfonyl)urea]
IC50 [1]: 10000 to 30000 nM | IC50 (platelet ADP receptors): < 50 nM

SMILES: CNc1cc2c(cc1F)C(=O)N(c1cnc(NC(=O)NS(=O)(=O)c3ccc(Cl)s3)c(C)c1)CO2 [Example 42, 1-(5-chlorothiophen-2-ylsulfonyl)-3-(5-(6-fluoro-7-(methylamino)-4-oxo-2H-benzo [e][1,3]oxazin-3(4H)-yl)-3-methylpyridin-2-yl)urea]
IC50 [1]: < 10000 nM | IC50 (platelet ADP receptors): < 50 nM

IC50 (platelet ADP receptors): > 500 nM
SMILES: CNc1cc2c(cc1F)C(=O)N(c1ccc(NC(=O)NS(=O)(=O)c3ccc(Cl)s3)cc1OCCN(C)C)CO2 [Example 25, 1-(5-chlorothiophen-2-ylsulfonyl)-3-(3-(2-(dimethylamino)ethoxy)-4-(6-fluoro-7-(methylamino)-4-oxo-2H-benzo[e][1,3]oxazin-3(4H)-yl)phenyl)urea]

SMILES: CNc1cc2c(cc1F)C(=O)N(c1ccc(NC(=O)NS(=O)(=O)c3ccc(Cl)s3)c(OCCN(C)C)c1)CO2 [Example 34]
IC50 [1]: 10000 to 30000 nM | IC50 (platelet ADP receptors): 50 to 500 nM

SMILES: CNc1cc2c(cc1F)C(=O)N(c1ccc(NC(=O)NS(=O)(=O)c3ccc(Cl)s3)c(OC)c1)CO2 [Example 27, 1-(5-chlorothiophen-2-ylsulfonyl)-3-(4-(6-fluoro-7-(methylamino)-4-oxo-2H-benzo[e][1,3]oxazin-3(4H)-yl)-2-methoxyphenyl)urea]
IC50 [1]: > 30000 nM | IC50 (platelet ADP receptors): < 50 nM

SMILES: CNc1cc2c(cc1F)C(=O)N(c1ccc(NC(=O)NS(=O)(=O)c3ccc(Cl)s3)cc1)CO2 [Example 5, 1-(5-chlorothiophen-2-ylsulfonyl)-3-(4-(6-fluoro-7-(methylamino)-4-oxo-2H-benzo[e][1,3]oxazin-3(4H)-yl)phenyl)urea]
IC50 [1]: < 10000 nM | IC50 (platelet ADP receptors): < 50 nM

SMILES: CNc1cc2c(cc1F)C(=O)N(c1ccc(C(=O)NS(=O)(=O)c3ccc(Cl)s3)c(F)c1)CO2 [Example 57, N-(5-chlorothiophen-2-ylsulfonyl)-2-fluoro-4-(6-fluoro-7-(methylamino)-4-oxo-2H-benzo[e][1,3]oxazin-3(4H)-yl) benzamide]
IC50 [1]: > 30000 nM | IC50 (platelet ADP receptors): < 50 nM

IC50 (platelet ADP receptors): > 500 nM
SMILES: CCOCCOc1cc(NC(=O)NS(=O)(=O)c2ccc(Cl)s2)ccc1N1COc2cc(NC)c(F)cc2C1=O [Example 20, 1-(5-chlorothiophen-2-ylsulfonyl)-3-(3-(2-ethoxyethoxy)-4-(6-fluoro-7-(methylamino)-4-oxo-2H-benzo[e][1,3]oxazin-3(4H)-yl)phenyl)urea]

SMILES: CNc1cc2c(cc1F)C(=O)N(c1ccc(NC(=O)NS(=O)(=O)c3ccc(Cl)s3)c(C)c1)CO2 [Example 10, 1-(5-chlorothiophen-2-ylsulfonyl)-3-(4-(6-fluoro-7-(methylamino)-4-oxo-2H-benzo [e][1,3]oxazin-3(4H)-yl)-2-methylphenyl)urea]
IC50 [1]: 10000 to 30000 nM | IC50 (platelet ADP receptors): 50 to 500 nM

SMILES: CNc1cc2c(cc1F)C(=O)N(c1ccc(NC(=O)NS(=O)(=O)c3ccc(Cl)s3)nc1)CO2 [Example 41, 1-(5-chlorothiophen-2-ylsulfonyl)-3-(5-(6-fluoro-7-(methylamino)-4-oxo-2H-benzo[e][1,3]oxazin-3(4H)-yl)pyridin-2-yl)urea]
IC50 [1]: < 10000 nM | IC50 (platelet ADP receptors): < 50 nM

SMILES: CNc1cc2c(cc1F)C(=O)N(c1ccc(NC(=O)NS(=O)(=O)c3ccc(OC)s3)nc1)CO2 [Example 44, 1-(5-(6-fluoro-7-(methylamino)-4-oxo-2H-benzo[e][1,3]oxazin-3(4H)-yl)pyridin-2-yl)-3-(5-methoxythiophen-2-ylsulfonyl)urea]
IC50 [1]: > 30000 nM | IC50 (platelet ADP receptors): 50 to 500 nM

SMILES: CNc1cc2c(cc1Cl)C(=O)N(c1ccc(NC(=O)NS(=O)(=O)c3ccc(Cl)s3)cc1)CO2 [Example 51, 1-(5-chlorothiophen-2-ylsulfonyl)-3-(4-(6-chloro-7-(methylamino)-4-oxo-2H-benzo[e][1,3]oxazin-3(4H)-yl)phenyl)urea]
IC50 [1]: > 30000 nM | IC50 (platelet ADP receptors): < 50 nM

SMILES: CNc1cc2c(cc1F)C(=O)N(c1ccc(NC(=O)NS(=O)(=O)c3ccc(C)s3)nc1)CO2 [Example 43]
IC50 [1]: < 10000 nM | IC50 (platelet ADP receptors): < 50 nM

SMILES: CNc1cc2c(cc1F)C(=O)N(c1ccc(C(=O)NS(=O)(=O)c3ccc(Cl)s3)cc1)CO2 [Example 56, N-(5-chlorothiophen-2-ylsulfonyl)-4-(6-fluoro-7-(methylamino) -4-oxo-2H-benzo[e] [1,3]oxazin-3(4H)-yl) benzamide]
IC50 [1]: < 10000 nM | IC50 (platelet ADP receptors): < 50 nM

SMILES: CNc1cc2c(cc1F)C(=O)N(c1cc(C)c(NC(=O)NS(=O)(=O)c3ccc(Cl)s3)c(C)c1)CO2 [Example 26, (5-chlorothiophen-2-ylsulfonyl)-3-(4-(6-fluoro-7-(methylamino)-4-oxo-2H-benzo[e][1,3]oxazin-3(4H)-yl)-2,6-dimethylphenyl)urea]
IC50 [1]: < 10000 nM | IC50 (platelet ADP receptors): < 50 nM

SMILES: CNc1cc2c(cc1F)C(=O)N(c1ccc(NC(=O)NS(=O)(=O)c3ccc(OC)s3)cc1)CO2 [Example 45]
IC50 [1]: > 30000 nM | IC50 (platelet ADP receptors): < 50 nM

SMILES: CNc1cc2c(cc1F)C(=O)N(c1ccc(NC(=O)NS(=O)(=O)c3ccc(Cl)s3)c(C(N)=O)c1)CO2 [Example 39, 1-(2-carbamoyl-4-(6-fluoro-7-(methylamino)-4-oxo-2H-benzo[e][1,3]oxazin-3(4H)-yl)phenyl)-3-(5-chlorothiophen-2-ylsulfonyl)urea]
IC50 [1]: < 10000 nM | IC50 (platelet ADP receptors): < 50 nM

SMILES: CNc1cc2c(cc1F)C(=O)N(c1ccc(NC(=O)NS(=O)(=O)c3ccc(Cl)s3)c(OCCOC)c1)CO2 [Example 28, 1-(5-chlorothiophene-2-ylsulfonyl)-3-(4-(6-fluoro-7-(methylamino)-4-oxo-2H-benzo[e][1,3]oxazin-3(4H)-yl)-2-(2-methoxyethoxy)phenyl)urea]
IC50 [1]: < 10000 nM | IC50 (platelet ADP receptors): < 50 nM

IC50 (platelet ADP receptors): 50 to 500 nM
SMILES: CNc1cc2c(cc1F)C(=O)N(c1ccc(NC(=O)NS(=O)(=O)c3ccc(Cl)s3)c(C(=O)N(C)C)c1)CO2 [Example 37, 1-(5-chlorothiophen-2-ylsulfonyl)-3-(2-(dimethylcarbamoyl)-4-(6-fluoro-7-(methylamino)-4-oxo-2H-benzo[e][1,3]oxazin-3(4H)-yl)phenyl)urea]
